This passage reports activation results from patent publication EP4702986A1, “POLYPEPTIDE AND USE THEREOF” (Biocells (Beijing) Biotech Co., Ltd., priority 2023, dated 2024).

The target of this assay is T1, human ETA receptor (Homo sapiens, UniProt P25101).
T1 construct: expressed in transfected cells; host or cells: 293T-17 cells, transient transfection
T1 sequence (P25101 21-427): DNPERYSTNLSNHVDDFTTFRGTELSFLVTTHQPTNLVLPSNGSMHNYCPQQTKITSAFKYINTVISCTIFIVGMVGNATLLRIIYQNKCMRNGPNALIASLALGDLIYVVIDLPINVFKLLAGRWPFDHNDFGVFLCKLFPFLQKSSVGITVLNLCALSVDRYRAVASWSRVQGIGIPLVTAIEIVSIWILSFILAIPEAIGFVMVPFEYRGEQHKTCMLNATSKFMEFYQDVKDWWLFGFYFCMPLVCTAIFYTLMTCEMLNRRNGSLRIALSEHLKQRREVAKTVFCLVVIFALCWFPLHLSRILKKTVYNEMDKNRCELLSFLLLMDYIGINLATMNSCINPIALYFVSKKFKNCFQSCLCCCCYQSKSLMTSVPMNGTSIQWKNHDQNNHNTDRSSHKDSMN
The assay is described as follows: Selectivity of polypeptides on human ETA receptor (IP-One Gq kit, % of positive control ET1). The assay is classed as cell-based. The following applies: read-out: hETAR agonist activity, percentage of activity relative to ET1. The protocol: 293T-17 cells were seeded at a density of 650,000 cells per well in a 6-well plate and cultured overnight in an incubator at 37°C and 5% CO2. Afterward, the cells were transfected with an expression vector, PCDNA3.1-hETA which contained a human ETA receptor gene, at a plasmid concentration of 2.5 µg per well. The cells were further cultured for 48 hours, and green fluorescence expression was observed under a fluorescence microscope. The cells were then digested with trypsin and counted. The activity of compounds on the human ETA receptor was determined with the IP-One Gq kit from Cisbio Bioassays. The cells were suspended in Stim Buffer provided in the kit and the cell suspension was added to a 96-well detection plate at 7 µL cell suspension (containing 30,000 cells) per well. The polypeptides to be screened for activity (prepared according to the Preparation Example of the invention) and polypeptide human endothelin ET1 as positive control were dissolved in Stim B to be at a concentration of 2×, and 7 µL was added to the test cells, while 7 µL of PBS solution was added to the cells in the negative control wells. Human endothelin ET1 (ET1: […] (C1-C15,C3-C11)) set forth in SEQ ID No. 85 was used as the positive control polypeptide. The plate was sealed and incubated at 37°C for 1 h in a cell culture incubator. Detection wells, positive control wells, and PBS control wells were each added with 3 µL of IP1 d2 working solution and 3 µL of IP1 Tb cryptotate Antibody working solution. The plate was sealed and incubated in the dark at room temperature (25°C±5°C) for 1 h. The plate seal was removed, and the […] at 665 nm and 620 nm was measured with an ID5 microplate reader. The ratio of the acceptor emission signal to the donor emission signal, i.e., the value of (signal at 665 nm/signal at 620 nm)×10^4, was calculated for each well. With F3 representing the average value of values of signal at 665 nm/signal at 620 nm determined for the test sample at a specific concentration, F5 representing the average value of values of signal at 665 nm/signal at 620 nm determined for the positive control human endothelin ET1 at the same concentration, and T3 representing the average value of values of signal at 665 nm/signal at 620 nm determined for the PBS negative control, the percentage of activity of the test polypeptide sample relative to the positive control sample ET1 = (F3-T3)×100/(F5-T3) (see Table 6). hETA sequence (NCBI accession number L06622.1).

Read-outs that look alike come from different tables or passages of the source. Numbered stars: 1 amine (or outer) side, 2 acyl side, 3 side chain; on linkers, the order of the positions; unused ones are H or OH. Bridge positions count the residues as written; N and C are the ends. Square brackets hold non-standard residues; d marks the D form. Side chains are listed from the residue outwards. Peptide text beside a SMILES is read from it. * marks the point of attachment. C18 diacid = O=C(O)CCCCCCCCCCCCCCCCC(=O)*; γGlu = O=C(O)[C@H](CCC(=O)[*:2])N[*:1]; Fumaryl(OMe) = COC(=O)/C=C/C(=O)*; Suc = O=C(CCC(=O)[*:2])[*:1]; Orn = NCCC[C@H](N)C(=O)O; Dab = NCC[C@H](N)C(=O)O; AEEA = NCCOCCOCC(=O)O

In the case of `CC[C@H](C)[C@H](NC(=O)[C@H](CC(=O)O)NC(=O)[C@H](CC(C)C)NC(=O)[C@H](Cc1c[nH]cn1)NC(=O)[C@H](C)NC(=O)[C@H](Cc1ccccc1)NC(=O)[C@H](Cc1ccc(O)cc1)NC(=O)[C@H](CCCCN)NC(=O)[C@H](C)NC(=O)[C@H](CCC(=O)O)NC(=O)[C@H](CCC(=O)O)NC(=O)[C@H](CC(=O)O)NC(=O)CCC(=O)O)C(=O)N[C@H](C(=O)N[C@@H](Cc1c[nH]c2ccccc12)C(=O)O)[C@@H](C)CC` [BX-43] (Suc-DEEAKYFAHLDIIW-OH), the activation at 1 µM is 13.5%. The activation at 10 µM (@10µM) is 17%. For `CC[C@H](C)[C@H](NC(=O)[C@H](CC(=O)O)NC(=O)[C@@H]1CCCCNC(=O)CC[C@H](NC(=O)[C@H](CCC(=O)O)NC(=O)[C@H](CCC(=O)O)NC(=O)[C@H](CC(=O)O)NC(=O)CCC(=O)O)C(=O)N[C@@H](C(C)C)C(=O)N[C@@H](Cc2ccc(O)cc2)C(=O)N[C@@H](Cc2ccccc2)C(=O)N[C@@H](C)C(=O)N[C@@H](Cc2c[nH]cn2)C(=O)N1)C(=O)N[C@H](C(=O)N[C@@H](Cc1c[nH]c2ccccc12)C(=O)O)[C@@H](C)CC` [BX-50, Suc-DEE cyclo(EVYFAHK)DIIW] (Suc-DEEEVYFAHKDIIW-OH; lactam 4-10), the activation at 0.01 µM is 10.1% and the activation at 0.1 µM was -6.92%.

With `CC[C@H](C)[C@H](NC(=O)[C@H](CC(=O)O)NC(=O)[C@H](CCCCNC(=O)COCCOCCNC(=O)COCCOCCNC(=O)CC[C@H](NC(=O)CCCCCCCCCCCCCCCCC(=O)O)C(=O)O)NC(=O)[C@H](Cc1c[nH]cn1)NC(=O)[C@H](C)NC(=O)[C@H](Cc1ccccc1)NC(=O)[C@H](Cc1ccc(O)cc1)NC(=O)[C@@H](NC(=O)[C@H](CCC(=O)O)NC(=O)[C@H](CCC(=O)O)NC(=O)[C@H](CCC(=O)O)NC(=O)[C@H](CC(=O)O)NC(=O)CCC(=O)O)C(C)C)C(=O)N[C@H](C(=O)N[C@@H](Cc1c[nH]c2ccccc12)C(=O)O)[C@@H](C)CC` [BX-54] (Suc-DEEEVYFAHK([AEEA-AEEA-γGlu-C18 diacid])DIIW-OH), the activation at 10 µM (@10µM) was -18.5%. In addition, the activation at 100 µM (@100µM) is -8.66%.

Turning to `CC[C@H](C)[C@H](NC(=O)[C@H](CC(=O)O)NC(=O)[C@H](CCCN)NC(=O)[C@H](Cc1c[nH]cn1)NC(=O)[C@H](C)NC(=O)[C@H](Cc1ccccc1)NC(=O)[C@H](Cc1ccc(O)cc1)NC(=O)[C@@H](NC(=O)[C@H](CCC(=O)O)NC(=O)[C@H](CCC(=O)O)NC(=O)[C@H](CCC(=O)O)NC(=O)[C@H](CC(=O)O)NC(=O)CCC(=O)O)C(C)C)C(=O)N[C@H](C(=O)N[C@@H](Cc1c[nH]c2ccccc12)C(=O)O)[C@@H](C)CC` [BX-53, Suc-DEEEVYFAHOrnDIIW] (Suc-DEEEVYFAH[Orn]DIIW-OH), the activation at 0.01 µM was -17.6% and the activation at 0.1 µM is -17%. For the compound `CC[C@H](C)[C@H](NC(=O)[C@H](CC(=O)O)NC(=O)[C@H](CCCCNC(=O)CC[C@H](NC(=O)COCCOCCNC(=O)COCCOCCNC(=O)CCCCCCCCCCCCCCCCC(=O)O)C(=O)O)NC(=O)[C@H](Cc1c[nH]cn1)NC(=O)[C@H](C)NC(=O)[C@H](Cc1ccccc1)NC(=O)[C@H](Cc1ccc(O)cc1)NC(=O)[C@@H](NC(=O)[C@H](C)NC(=O)[C@H](CCC(=O)O)NC(=O)[C@H](CCC(=O)O)NC(=O)[C@H](CC(=O)O)NC(=O)CCC(=O)O)C(C)C)C(=O)N[C@H](C(=O)N[C@@H](Cc1c[nH]c2ccccc12)C(=O)O)[C@@H](C)CC` [BX-74] (Suc-DEEAVYFAHK([γGlu-AEEA-AEEA-C18 diacid])DIIW-OH), the activation at 10 µM is -2.64% and the activation at 100 µM was -13.5%. Turning to `CC[C@H](C)[C@H](NC(=O)[C@H](CC(=O)O)NC(=O)[C@H](CCCCN)NC(=O)[C@H](Cc1c[nH]cn1)NC(=O)[C@H](C)NC(=O)[C@H](Cc1ccccc1)NC(=O)[C@H](Cc1ccc(O)cc1)NC(=O)[C@@H](NC(=O)[C@H](CCC(=O)O)NC(=O)[C@H](CCC(=O)O)NC(=O)[C@H](CCC(=O)O)NC(=O)[C@H](CC(=O)O)NC(=O)CCC(=O)O)C(C)C)C(=O)N[C@H](C(=O)N[C@@H](Cc1c[nH]c2ccccc12)C(=O)O)[C@@H](C)CC` [BX-45] (Suc-DEEEVYFAHKDIIW-OH), the activation at 1 µM came out at 14.7%. As to `CC[C@H](C)[C@H](NC(=O)[C@H](CC(=O)O)NC(=O)[C@H](CCCCN)NC(=O)[C@H](Cc1c[nH]cn1)NC(=O)[C@H](C)NC(=O)[C@H](Cc1ccccc1)NC(=O)[C@H](Cc1ccc(O)cc1)NC(=O)[C@@H](NC(=O)[C@H](CCC(=O)O)NC(=O)[C@H](CCC(=O)O)NC(=O)[C@H](CCC(=O)O)NC(=O)[C@H](CC(=O)O)NC(=O)/C=C/C(=O)OC)C(C)C)C(=O)N[C@H](C(=O)N[C@@H](Cc1c[nH]c2ccccc12)C(=O)O)[C@@H](C)CC` [BX-58] ({Fumaryl(OMe)}-DEEEVYFAHKDIIW-OH), the activation at 10 µM (@10µM) was -5.95%. Further, the activation at 100 µM (@100µM) is -2.01%.

Turning to `CC[C@H](C)[C@H](NC(=O)[C@H](CC(=O)O)NC(=O)[C@H](CC(C)C)NC(=O)[C@H](Cc1c[nH]cn1)NC(=O)[C@H](C)NC(=O)[C@H](Cc1ccccc1)NC(=O)[C@H](Cc1ccc(O)cc1)NC(=O)[C@@H]1CCNC(=O)CC[C@H](NC(=O)[C@H](CC(=O)O)NC(=O)CCC(=O)O)C(=O)N[C@@H](CCC(=O)O)C(=O)N[C@@H](C)C(=O)N1)C(=O)N[C@H](C(=O)N[C@@H](Cc1c[nH]c2ccccc12)C(=O)O)[C@@H](C)CC` [BX-49] (Suc-DEEA[Dab]YFAHLDIIW-OH; lactam 2-5), the activation at 0.01 µM (@10nM) is -20.9%. Moreover, the activation at 0.1 µM (@100nM) was -15.4%.
